Data as given in ChEMBL document CHEMBL4196088, “Induction of cell killing and autophagy by amphiphilic pyrrolidine derivatives on human pancreatic cancer cells” (Eur J Med Chem, 2018).
pIC50: −log10 of the molar value.

Legend:
SK-BR-3 = assay: Growth inhibition of human SKBR3 cells after 72 hrs; format: functional, cell-based; details: SK-BR-3, 72 h
[1] = Induction of apoptosis in HPNE cells assessed as accumulation at sub-G0/G1 phase at 20 uM after 24 hrs by propidium iodide staining based flow cytometry (reference value: 0.6%); format: cell-based; details: human
Fibroblast [2] = assay: Induction of apoptosis in human primary fibroblasts assessed as accumulation at sub-G0/G1 phase at 10 uM after 72 hrs by propidium iodide staining based flow cytometry (reference value: 6.7%); format: cell-based
PANC-1 [3] = assay: Induction of apoptosis in human PANC1 cells assessed as accumulation at sub-G0/G1 phase at 10 uM after 48 hrs by propidium iodide staining based flow cytometry (reference value: 0.2 to 2.9%); format: functional
PANC-1 [4] = assay: Induction of apoptosis in human PANC1 cells assessed as accumulation at sub-G0/G1 phase at 20 uM after 48 hrs by propidium iodide staining based flow cytometry (reference value: 0.2 to 2.9%); format: functional
[5] = Induction of apoptosis in HPNE cells assessed as accumulation at sub-G0/G1 phase at 10 uM after 72 hrs by propidium iodide staining based flow cytometry (reference value: 6.6%); format: cell-based; details: human
PANC-1 [6] = assay: Induction of apoptosis in human PANC1 cells assessed as accumulation at sub-G0/G1 phase at 20 uM after 24 hrs by propidium iodide staining based flow cytometry (reference value: 0.6 to 0.7%); format: functional
PANC-1 [7] = assay: Induction of apoptosis in human PANC1 cells assessed as accumulation at sub-G0/G1 phase at 20 uM after 72 hrs by propidium iodide staining based flow cytometry (reference value: 1.6 to 3.2%); format: functional
PK9 [8] = assay: Induction of apoptosis in human PK9 cells assessed as accumulation at sub-G0/G1 phase at 20 uM after 72 hrs by propidium iodide staining based flow cytometry (reference value: 4%); format: functional
PK9 [9] = assay: Induction of apoptosis in human PK9 cells assessed as accumulation at sub-G0/G1 phase at 10 uM after 48 hrs by propidium iodide staining based flow cytometry (reference value: 3.8%); format: functional
PK9 [10] = assay: Induction of apoptosis in human PK9 cells assessed as accumulation at sub-G0/G1 phase at 10 uM after 72 hrs by propidium iodide staining based flow cytometry (reference value: 4%); format: functional
[11] = Induction of apoptosis in HPNE cells assessed as accumulation at sub-G0/G1 phase at 10 uM after 24 hrs by propidium iodide staining based flow cytometry (reference value: 0.6%); format: cell-based; details: human
PANC-1 [12] = assay: Induction of apoptosis in human PANC1 cells assessed as accumulation at sub-G0/G1 phase at 10 uM after 24 hrs by propidium iodide staining based flow cytometry (reference value: 0.6 to 0.7%); format: functional
Fibroblast [13] = assay: Induction of apoptosis in human primary fibroblasts assessed as accumulation at sub-G0/G1 phase at 10 uM after 24 hrs by propidium iodide staining based flow cytometry (reference value: 4.8%); format: cell-based
PK9 [14] = assay: Induction of apoptosis in human PK9 cells assessed as accumulation at sub-G0/G1 phase at 20 uM after 48 hrs by propidium iodide staining based flow cytometry (reference value: 3.8%); format: functional
Fibroblast [15] = assay: Induction of apoptosis in human primary fibroblasts at 20 uM after 48 hrs by propidium iodide staining based flow cytometry (reference value: 6.1%); format: cell-based
Fibroblast [16] = assay: Induction of apoptosis in human primary fibroblasts assessed as accumulation at sub-G0/G1 phase at 10 uM after 48 hrs by propidium iodide staining based flow cytometry (reference value: 6.1%); format: cell-based
PK9 [17] = assay: Induction of apoptosis in human PK9 cells assessed as accumulation at sub-G0/G1 phase at 10 uM after 24 hrs by propidium iodide staining based flow cytometry (reference value: 2.2%); format: functional
[18] = Induction of apoptosis in HPNE cells assessed as accumulation at sub-G0/G1 phase at 20 uM after 48 hrs by propidium iodide staining based flow cytometry (reference value: 0.7%); format: cell-based; details: human
PANC-1 [19] = assay: Induction of apoptosis in human PANC1 cells assessed as accumulation at sub-G0/G1 phase at 10 uM after 72 hrs by propidium iodide staining based flow cytometry (reference value: 1.6 to 3.2%); format: functional
HeLa = assay: Growth inhibition of human HeLa cells after 72 hrs; format: functional, cell-based
Fibroblast [20] = assay: Induction of apoptosis in human primary fibroblasts at 20 uM after 24 hrs by propidium iodide staining based flow cytometry (reference value: 4.8%); format: cell-based
Fibroblast [21] = assay: Induction of apoptosis in human primary fibroblasts at 20 uM after 72 hrs by propidium iodide staining based flow cytometry (reference value: 6.7%); format: cell-based
PK9 [22] = assay: Induction of apoptosis in human PK9 cells assessed as accumulation at sub-G0/G1 phase at 20 uM after 24 hrs by propidium iodide staining based flow cytometry (reference value: 2.2%); format: functional
[23] = Induction of apoptosis in HPNE cells assessed as accumulation at sub-G0/G1 phase at 10 uM after 48 hrs by propidium iodide staining based flow cytometry (reference value: 0.7%); format: cell-based; details: human
[24] = Induction of apoptosis in HPNE cells assessed as accumulation at sub-G0/G1 phase at 20 uM after 72 hrs by propidium iodide staining based flow cytometry (reference value: 6.6%); format: cell-based; details: human
BXPC-3 [25] = assay: Induction of apoptosis in human BxPC3 cells harboring pSFFV-Bcl-XL assessed as accumulation at sub-G0/G1 phase at 10 uM after 72 hrs by propidium iodide staining based flow cytometry (reference value: 2%); format: functional
BXPC-3 [26] = assay: Induction of apoptosis in human BxPC3 cells assessed as accumulation at sub-G0/G1 phase harboring pSFFV-Bcl-XL at 20 uM after 48 hrs by propidium iodide staining based flow cytometry (reference value: 1.3%); format: functional
BXPC-3 [27] = assay: Induction of apoptosis in human BxPC3 cells assessed as accumulation at sub-G0/G1 phase at 20 uM after 24 hrs by propidium iodide staining based flow cytometry (reference value: 2.3%); format: functional
BXPC-3 [28] = assay: Induction of apoptosis in human BxPC3 cells harboring pSFFV-Bcl-XL assessed as accumulation at sub-G0/G1 phase at 10 uM after 24 hrs by propidium iodide staining based flow cytometry (reference value: 1.5%); format: functional
BXPC-3 [29] = assay: Induction of apoptosis in human BxPC3 cells assessed as accumulation at sub-G0/G1 phase at 20 uM after 48 hrs by propidium iodide staining based flow cytometry (reference value: 2.8%); format: functional
BXPC-3 [30] = assay: Induction of apoptosis in human BxPC3 cells harboring pSFFV-Bcl-XL assessed as accumulation at sub-G0/G1 phase at 10 uM after 48 hrs by propidium iodide staining based flow cytometry (reference value: 1.9%); format: functional
BXPC-3 [31] = assay: Induction of apoptosis in human BxPC3 cells assessed as accumulation at sub-G0/G1 phase harboring pSFFV-Bcl-XL at 20 uM after 72 hrs by propidium iodide staining based flow cytometry (reference value: 1.3%); format: functional
BXPC-3 [32] = assay: Induction of apoptosis in human BxPC3 cells assessed as accumulation at sub-G0/G1 phase at 10 uM after 24 hrs by propidium iodide staining based flow cytometry (reference value: 1.8%); format: functional
BXPC-3 [33] = assay: Induction of apoptosis in human BxPC3 cells assessed as accumulation at sub-G0/G1 phase at 10 uM after 72 hrs by propidium iodide staining based flow cytometry (reference value: 3.4%); format: functional
BXPC-3 [34] = assay: Induction of apoptosis in human BxPC3 cells assessed as accumulation at sub-G0/G1 phase at 10 uM after 48 hrs by propidium iodide staining based flow cytometry (reference value: 2.8%); format: functional
BXPC-3 [35] = assay: Induction of apoptosis in human BxPC3 cells assessed as accumulation at sub-G0/G1 phase at 20 uM after 72 hrs by propidium iodide staining based flow cytometry (reference value: 3.4%); format: functional
BXPC-3 [36] = assay: Induction of apoptosis in human BxPC3 cells assessed as accumulation at sub-G0/G1 phase harboring pSFFV-Bcl-XL at 20 uM after 24 hrs by propidium iodide staining based flow cytometry (reference value: 1.2%); format: functional

Row | SMILES | Activity [1] [%] | Activity (Fibroblast [2]) [%] | Activity (PANC-1 [3]) [%] | Activity (PANC-1 [4]) [%] | Activity [5] [%] | Activity (PANC-1 [6]) [%] | Activity (PANC-1 [7]) [%] | Activity (PK9 [8]) [%] | Activity (PK9 [9]) [%] | Activity (PK9 [10]) [%] | Activity [11] [%] | Activity (PANC-1 [12]) [%] | Activity (Fibroblast [13]) [%] | Activity (PK9 [14]) [%] | Activity (Fibroblast [15]) [%] | Activity (Fibroblast [16]) [%] | Activity (PK9 [17]) [%] | Activity [18] [%] | Activity (PANC-1 [19]) [%] | pIC50 (HeLa) | also measured
1 | CCCCCCCC/C=C\CCCCCCCCNC[C@H]1NC[C@H](O)[C@@H]1O | – | – | – | – | – | – | – | – | – | – | – | – | – | – | – | – | – | – | – | – | pIC50 (SK-BR-3): 5.00
2 | Cl.O[C@H]1CN[C@H](COCCCCCC/C=C/c2ccc(-c3ccccc3)cc2)C1 | 69.6 | 54.5 | 29.3 | 36.9 | 93.6 | 16.1 | 54.2 | 71.5 | 10 | 13.5 | 44.4 | 9.6 | 14.6 | 66.6 | 75.4 | 19.8 | 6.9 | 92.1 | 47.9 | 5.38 | Activity (Fibroblast [20]): 58.9%; Activity (Fibroblast [21]): 73.7%; Activity (PK9 [22]): 26%; Activity [23]: 78.5%; Activity [24]: 92.6%
3 | Cl.O[C@H]1CN[C@H](COCCCCCCCC/C=C/c2ccc(Oc3ccccc3)cc2)C1 | 66.6 | 8.1 | 21.8 | 33.7 | 85.9 | 14.7 | 43.8 | 48.7 | 7.4 | 6.9 | 42.8 | 12.9 | 9.1 | 46.5 | 74.8 | 6.5 | 3.5 | 87.5 | 28.2 | 5.41 | Activity (Fibroblast [20]): 40.1%; Activity (Fibroblast [21]): 72.7%; Activity (PK9 [22]): 30.1%; Activity [23]: 72.9%; Activity [24]: 94.3%
4 | Cl.O[C@H]1CN[C@H](COCCCCCCCCC/C=C/c2ccc(Oc3ccccc3)cc2)C1 | 62.4 | 6.5 | 25.3 | 49.5 | 88 | 8.9 | 56.1 | 27.8 | 10.8 | 5.4 | 67.1 | 11.5 | 9.8 | 23.1 | 87.9 | 6.6 | 4.3 | 86.8 | 35.1 | 5.44 | Activity (Fibroblast [20]): 75.1%; Activity (Fibroblast [21]): 82.1%; Activity (PK9 [22]): 20.6%; Activity [23]: 86.1%; Activity [24]: 91.2%
5 | Cl.O[C@H]1CN[C@H](COCCCCCCCCC/C=C/c2ccc(-c3ccccc3)cc2)C1 | 83.1 | 22.1 | 23.2 | 38 | 93.4 | 17.6 | 66.2 | 84.9 | 30.4 | 39.4 | 80.6 | 8.8 | 9.5 | 77.4 | 21.7 | 11.7 | 9.6 | 93.5 | 56.2 | 5.40 | Activity (BXPC-3 [25]): 15.7%; Activity (BXPC-3 [26]): 11.4%; Activity (BXPC-3 [27]): 12.7%; Activity (BXPC-3 [28]): 2.6%; Activity (BXPC-3 [29]): 59.3%; Activity (BXPC-3 [30]): 10%; Activity (BXPC-3 [31]): 49.7%; Activity (Fibroblast [20]): 17.2%; Activity (Fibroblast [21]): 33.7%; Activity (PK9 [22]): 35.1%; Activity (BXPC-3 [32]): 22.1%; Activity (BXPC-3 [33]): 59.3%; Activity [23]: 83.5%; Activity (BXPC-3 [34]): 34.6%; Activity [24]: 98.3%; Activity (BXPC-3 [35]): 72%; Activity (BXPC-3 [36]): 7.3%
